Source: US20250127906A1, “SMALL-MOLECULE DEGRADERS OF CDK8 AND CDK19” (University of South Carolina, priority 2021, published 2025)
Marks after values point to notes of the source that are not given here.

Molecular target: CDK8 (Homo sapiens, UniProt P49336)
Experiment: CDK8 degradation in HEK-293 cells (Western blot, normalized by GAPDH)
Format: cell-based
Parameters: endogenous in cells; host or cells: HEK-293
Conditions: HEK-293 cells; for % CDK8 remaining: 24 hours
Description: Table 1 presents the structures of 35 different chimeras that have been synthesized, together with their effects (at 1 μM or 0.3 μM concentrations) on CDK8 degradation in HEK-293 cells. The synthesis schemes of all the compounds are described below. CDK8 degradation was measured by Western blot analysis of RIPA lysates of HEK-293cells treated with or without the test compound for 24 hours, using antibodies against CDK8 (Santa Cruz sc-1521) and housekeeping protein GAPDH (Santa Cruz sc-32233) (loading control) Protein bands on immunoblotted PVDF membranes were visualized with Western Lighting Plus ECL detection reagent (Perkin Elmer, Waltham, MA, USA) using ChemiDoc Touch™ (Bio-Rad). Image processing and densitometry analysis were performed using ImageLab software (Bio-Rad) to quantify the CDK8 protein levels (normalized by GAPDH) and evaluate the effects of compound treatment.
FIGS. 2F and 2G show the effects of different concentrations of potent Senexin C- and BI-1347-based PROTACs on CDK8 and CDK19 degradation in HEK-293cells. Based on these assays, we calculated DC50 values that correspond to PROTAC concentrations inducing degradation of CDK8 and CDK19 to the half of protein level in untreated cells. The corresponding CDK8 DC50 values were 46 nM for IA7843, 6.6 nM for IA7882 and 2.8 nM for IA7886, and CDK19 DC50 values were 1 μM for IA7843, 25 nM for IA7882 and 10 nM for IA7886.

Chain of CDK8 (P49336 whole entry): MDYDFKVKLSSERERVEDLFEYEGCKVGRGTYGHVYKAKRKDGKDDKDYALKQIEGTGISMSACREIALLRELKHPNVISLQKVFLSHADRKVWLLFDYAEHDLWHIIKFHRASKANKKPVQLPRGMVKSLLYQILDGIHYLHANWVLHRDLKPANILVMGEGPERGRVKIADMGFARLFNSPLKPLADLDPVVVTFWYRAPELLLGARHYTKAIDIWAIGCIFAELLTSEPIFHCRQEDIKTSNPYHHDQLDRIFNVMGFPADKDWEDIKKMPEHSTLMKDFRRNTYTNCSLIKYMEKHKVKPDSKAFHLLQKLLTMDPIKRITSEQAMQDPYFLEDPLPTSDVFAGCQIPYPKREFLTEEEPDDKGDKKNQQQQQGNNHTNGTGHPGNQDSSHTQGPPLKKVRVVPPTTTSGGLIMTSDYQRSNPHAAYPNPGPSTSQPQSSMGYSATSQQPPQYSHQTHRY
Chain of CDK8 (P24863 whole entry partner): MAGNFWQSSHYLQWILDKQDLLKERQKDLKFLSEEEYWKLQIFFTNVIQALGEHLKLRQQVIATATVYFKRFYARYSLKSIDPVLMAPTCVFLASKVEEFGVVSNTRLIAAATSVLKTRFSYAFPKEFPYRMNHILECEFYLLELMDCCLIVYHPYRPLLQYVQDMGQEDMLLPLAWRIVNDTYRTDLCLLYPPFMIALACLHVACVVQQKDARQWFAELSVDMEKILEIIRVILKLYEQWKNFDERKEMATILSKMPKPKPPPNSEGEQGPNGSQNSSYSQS

Row | SMILES | % CDK8 remaining (tested at 1 μM) | % CDK8 remaining (tested at 0.3 μM (marked *)) | CDK8 degradation (in words) (Western blot)
1 | N#Cc1ccc2nccc(NCCc3ccc4cc(C(=O)N5CCN(C(=O)CCCCCCCCNC(=O)CCOCCNc6cccc7c6C(=O)N(C6CCC(=O)NC6=O)C7=O)CC5)ccc4c3)c2c1 (stereo not shown) [IA7835, N-[9-[4-[6-[2-[(6-cyano-4-quinolyl)amino]ethyl]naphthalene-2-carbonyl]piperazin-1-yl]-9-oxo-nonyl]-3-[2-[[2-(2,6-dioxo-3-piperidyl)-1,3-dioxo-isoindolin-4-yl]amino]ethoxy]propanamide] | 45% |  | 
2 | N#Cc1ccc2nccc(NCCc3ccc4cc(C(=O)N5CCN(C(=O)CCCCCCCCC(=O)NCCCCCNc6cccc7c6C(=O)N(C6CCC(=O)NC6=O)C7=O)CC5)ccc4c3)c2c1 (stereo not shown) [IA7840, 10-[4-[6-[2-[(6-cyano-4-quinolyl)amino]ethyl]naphthalene-2-carbonyl]piperazin-1-yl]-N-[5-[[2-(2,6-dioxo-3-piperidyl)-1,3-dioxo-isoindolin-4-yl]amino]pentyl]-10-oxo-decanamide] | 55% |  | 
3 | N#Cc1ccc2nccc(NCCc3ccc4cc(C(=O)N5CCN(C(=O)CCCCCCCCCCCNC(=O)CCNc6cccc7c6C(=O)N(C6CCC(=O)NC6=O)C7=O)CC5)ccc4c3)c2c1 (stereo not shown) [IA7848, N-[12-[4-[6-[2-[(6-cyano-4-quinolyl)amino]ethyl]naphthalene-2-carbonyl]piperazin-1-yl]-12-oxo-dodecyl]-3-[[2-(2,6-dioxo-3-piperidyl)-1,3-dioxo-isoindolin-4-yl]amino]propanamide] | 31% |  | 
4 | N#Cc1ccc2nccc(NCCc3ccc4cc(C(=O)N5CCN(C(=O)CCCCCCCCNC(=O)CCCCNc6cccc7c6C(=O)N(C6CCC(=O)NC6=O)C7=O)CC5)ccc4c3)c2c1 (stereo not shown) [IA7858, N-[9-[4-[6-[2-[(6-cyano-4-quinolyl)amino]ethyl]naphthalene-2-carbonyl]piperazin-1-yl]-9-oxo-nonyl]-5-[[2-(2,6-dioxo-3-piperidyl)-1,3-dioxo-isoindolin-4-yl]amino]pentanamide] | 21% |  | 
5 | N#Cc1ccc2nccc(NCCc3ccc4cc(C(=O)N5CCN(C(=O)CCCCCCCCCNC(=O)CCCCCNc6cccc7c6C(=O)N(C6CCC(=O)NC6=O)C7=O)CC5)ccc4c3)c2c1 (stereo not shown) [IA7859, N-[10-[4-[6-[2-[(6-cyano-4-quinolyl)amino]ethyl]naphthalene-2-carbonyl]piperazin-1-yl]-10-oxo-decyl]-6-[[2-(2,6-dioxo-3-piperidyl)-1,3-dioxo-isoindolin-4-yl]amino]hexanamide] | 81% |  | 
6 | N#Cc1ccc2nccc(NCCc3ccc4cc(C(=O)N5CCN(C(=O)CCCCCCCCNC(=O)CCCCCNc6cccc7c6C(=O)N(C6CCC(=O)NC6=O)C7=O)CC5)ccc4c3)c2c1 (stereo not shown) [IA7860, N-[9-[4-[6-[2-[(6-cyano-4-quinolyl)amino]ethyl]naphthalene-2-carbonyl]piperazin-1-yl]-9-oxo-nonyl]-6-[[2-(2,6-dioxo-3-piperidyl)-1,3-dioxo-isoindolin-4-yl]amino]hexanamide] | 95% |  | 
7 | N#Cc1ccc2nccc(NCCc3ccc4cc(C(=O)N5CCN(C(=O)CCCCCCCCCNC(=O)CCCCNc6cccc7c6C(=O)N(C6CCC(=O)NC6=O)C7=O)CC5)ccc4c3)c2c1 (stereo not shown) [IA7861, N-[10-[4-[6-[2-[(6-cyano-4-quinolyl)amino]ethyl]naphthalene-2-carbonyl]piperazin-1-yl]-10-oxo-decyl]-5-[[2-(2,6-dioxo-3-piperidyl)-1,3-dioxo-isoindolin-4-yl]amino]pentanamide] | 19% |  | 

Continued, values first:

Row | % CDK8 remaining (tested at 1 μM) | % CDK8 remaining (tested at 0.3 μM (marked *)) | CDK8 degradation (in words) (Western blot) | SMILES
8 | 39% |  |  | N#Cc1ccc2nccc(NCCc3ccc4cc(C(=O)N5CCN(C(=O)CCCCCCCCCCNC(=O)CCCNc6ccc7c(c6)C(=O)N(C6CCC(=O)NC6=O)C7=O)CC5)ccc4c3)c2c1 (stereo not shown) [IA7868, N-[11-[4-[6-[2-[(6-cyano-4-quinolyl)amino]ethyl]naphthalene-2-carbonyl]piperazin-1-yl]-11-oxo-undecyl]-4-[[2-(2,6-dioxo-3-piperidyl)-1,3-dioxo-isoindolin-5-yl]amino]butanamide]
9 | 43% |  |  | N#Cc1ccc2nccc(NCCc3ccc4cc(C(=O)N5CCN(C(=O)CCCCCCCCCCNC(=O)CCCNc6cccc7c6CN(C6CCC(=O)NC6=O)C7=O)CC5)ccc4c3)c2c1 (stereo not shown) [IA7869, N-[11-[4-[6-[2-[(6-cyano-4-quinolyl)amino]ethyl]naphthalene-2-carbonyl]piperazin-1-yl]-11-oxo-undecyl]-4-[[2-(2,6-dioxo-3-piperidyl)-1-oxo-isoindolin-4-yl]amino]butanamide]
10 | 100% |  |  | N#Cc1ccc2nccc(NCCc3ccc4cc(C(=O)N5CCN(C(=O)CCCCCCCCCNC(=O)COc6ccc7c(c6)CCCN7C(=O)CCl)CC5)ccc4c3)c2c1 [IA7875, 2-[[1-(2-chloroacetyl)-3,4-dihydro-2H-quinolin-6-yl]oxy]-N-[10-[4-[6-[2-[(6-cyano-4-quinolyl)amino]ethyl]naphthalene-2-carbonyl]piperazin-1-yl]-10-oxo-decyl]acetamide]
11 | 100% |  |  | O=C(Cn1cc(-c2ccc(-c3cncc4ccccc34)cc2)cn1)NCCOCCOCCOCCOCCNc1cccc2c1C(=O)N(C1CCC(=O)NC1=O)C2=O (stereo not shown) [IA7891, N-[2-[2-[2-[2-[2-[[2-(2,6-dioxo-3-piperidyl)-1,3-dioxo-isoindolin-4-yl]amino]ethoxy]ethoxy]ethoxy]ethoxy]ethyl]-2-[4-[4-(4-isoquinolyl)phenyl]pyrazol-1-yl]acetamide]
12 | 41% |  |  | NC(=O)c1sc2nccc(N3CCCN(c4ccc(C(=O)N5CCN(C(=O)CCOCCOCCOCCOCCNc6cccc7c6C(=O)N(C6CCC(=O)NC6=O)C7=O)CC5)cc4)CC3)c2c1N (stereo not shown) [IA7892, 3-amino-4-[4-[4-[4-[3-[2-[2-[2-[2-[[2-(2,6-dioxo-3-piperidyl)-1,3-dioxo-isoindolin-4-yl]amino]ethoxy]ethoxy]ethoxy]ethoxy]propanoyl]piperazine-1-carbonyl]phenyl]-1,4-diazepan-1-yl]thieno[2,3-b]pyridine-2-carboxamide]
13 |  | 9%* | highly potent degrader | CC(C)(C)C(=O)OCN1C(=O)CCC(N2C(=O)c3cccc(NCCCC(=O)NCCCCCCCCCCC(=O)N4CCN(C(=O)Cn5cc(-c6ccc(-c7cncc8ccccc78)cc6)cn5)CC4)c3C2=O)C1=O (stereo not shown) [IA7893, (3-(4-((4-((11-(4-(2-(4-(4-(isoquinolin-4-yl)phenyl)-1H-pyrazol-1-yl)acetyl)piperazin-1-yl)-11-oxoundecyl)amino)-4-oxobutyl)amino)-1,3-dioxoisoindolin-2-yl)-2,6-dioxopiperidin-1-yl)methyl pivalate]
14 |  | 51%* |  | O=C1CCC(N2C(=O)c3cccc(NCCOCCOCCOCCC(=O)N4CCN(C(=O)Cn5cc(-c6ccc(-c7cncc8ccccc78)cc6)cn5)CC4)c3C2=O)C(=O)N1 (stereo not shown) [IA7894, 2-(2,6-dioxopiperidin-3-yl)-4-((2-(2-(2-(3-(4-(2-(4-(4-(isoquinolin-4-yl)phenyl)-1H-pyrazol-1-yl)acetyl)piperazin-1-yl)-3-oxopropoxy)ethoxy)ethoxy)ethyl)amino) isoindoline-1,3-dione]
15 |  | 70%* |  | O=C1CCC(N2C(=O)c3cccc(NCCCCC(=O)N4CCN(C(=O)Cn5cc(-c6ccc(-c7cncc8ccccc78)cc6)cn5)CC4)c3C2=O)C(=O)N1 (stereo not shown) [IA7895, 2-(2,6-dioxopiperidin-3-yl)-4-((5-(4-(2-(4-(4-(isoquinolin-4-yl)phenyl)-1H-pyrazol-1-yl)acetyl)piperazin-1-yl)-5-oxopentyl)amino) isoindoline-1,3-dione]
